Laboratory results from ChEMBL document CHEMBL1201862, “PubChem BioAssay data set” (2004).
Blank lines part the entries; values can stand above or below the compound they belong to. Active and inactive are the calls of the source.

Key:
[1] = biological target: T1, Trace amine-associated receptor 1 (Homo sapiens, UniProt Q96RJ0); assay: Counterscreen for agonists of the human trace amine associated receptor 1 (hTAAR1): Fluorescence-based cell-based high throughput dose response assay to identify hTAAR1 agonist that also desensitize TAAR1 receptor response.; type: functional
T1 sequence (Q96RJ0 whole entry): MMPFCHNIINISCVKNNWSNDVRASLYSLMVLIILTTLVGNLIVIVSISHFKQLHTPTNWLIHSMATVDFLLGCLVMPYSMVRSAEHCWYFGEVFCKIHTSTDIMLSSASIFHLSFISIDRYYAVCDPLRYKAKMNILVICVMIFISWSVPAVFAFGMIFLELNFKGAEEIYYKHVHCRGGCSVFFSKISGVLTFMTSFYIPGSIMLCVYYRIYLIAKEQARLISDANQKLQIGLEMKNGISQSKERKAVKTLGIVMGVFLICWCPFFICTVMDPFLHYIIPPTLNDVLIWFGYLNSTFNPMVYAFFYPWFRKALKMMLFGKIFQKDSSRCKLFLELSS

[2] = biological target: T1, Trace amine-associated receptor 1; assay: Fluorescence-based cell-based high throughput dose response assay to identify agonists of the human trace amine associated receptor 1 (TAAR1).; type: functional
cells [3] = type: functional, cell-based
cells [4] = type: functional, cell-based; remark: listed apart in the source
[5] = HEp-2 cell cytotoxicity, dose response, cytotoxicity control for RSV inhibitor project, HTS (AID 2410); type: functional; details: human respiratory syncytial virus
[6] = cytotoxicity in HEK-293T cells, dose response, cytotoxicity control for BCR NF-kB inhibitor project, luminescence, B-cell screen hits (AID 489021); type: functional, cell-based;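 note: HEK-293T cells carrying an NF-kB luciferase reporter; cells exposed to compound for about 14 hours before viability readout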
[7] = biological target: T2, Sentrin-specific protease 7 (Homo sapiens, UniProt Q9BQF6); type: functional;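 note: Luminescence-based dose-response confirmation of ultra-high-throughput screening hits, measuring inhibition of SENP7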
T2 sequence (Q9BQF6 whole entry): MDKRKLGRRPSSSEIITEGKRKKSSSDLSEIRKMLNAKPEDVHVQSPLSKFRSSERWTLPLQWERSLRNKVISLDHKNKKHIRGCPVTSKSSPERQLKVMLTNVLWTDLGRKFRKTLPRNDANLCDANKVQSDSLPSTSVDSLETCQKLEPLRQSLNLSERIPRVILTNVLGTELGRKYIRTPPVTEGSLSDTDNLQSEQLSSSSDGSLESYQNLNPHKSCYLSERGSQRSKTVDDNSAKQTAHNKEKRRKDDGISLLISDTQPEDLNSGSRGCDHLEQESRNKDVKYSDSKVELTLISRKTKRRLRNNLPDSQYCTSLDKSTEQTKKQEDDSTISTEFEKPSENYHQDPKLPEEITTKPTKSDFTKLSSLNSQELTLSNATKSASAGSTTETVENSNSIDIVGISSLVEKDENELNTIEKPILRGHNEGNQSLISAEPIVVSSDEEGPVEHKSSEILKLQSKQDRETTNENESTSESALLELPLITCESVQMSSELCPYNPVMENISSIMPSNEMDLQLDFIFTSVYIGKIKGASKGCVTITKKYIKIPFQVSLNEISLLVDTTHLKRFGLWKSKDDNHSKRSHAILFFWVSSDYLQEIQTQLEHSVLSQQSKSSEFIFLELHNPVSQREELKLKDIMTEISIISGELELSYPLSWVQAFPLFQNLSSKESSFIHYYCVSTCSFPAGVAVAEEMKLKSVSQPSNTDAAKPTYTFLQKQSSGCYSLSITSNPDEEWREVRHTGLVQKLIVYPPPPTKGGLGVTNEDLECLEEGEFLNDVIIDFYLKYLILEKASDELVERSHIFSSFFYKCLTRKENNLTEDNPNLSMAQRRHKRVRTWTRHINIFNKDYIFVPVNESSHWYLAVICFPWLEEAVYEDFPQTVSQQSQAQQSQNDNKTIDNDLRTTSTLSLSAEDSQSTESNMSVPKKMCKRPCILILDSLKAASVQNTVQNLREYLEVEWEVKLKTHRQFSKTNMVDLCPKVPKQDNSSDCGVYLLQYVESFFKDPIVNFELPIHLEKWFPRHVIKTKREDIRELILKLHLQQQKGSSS

Caspase-3 = biological target: T3, Caspase-3 (Homo sapiens, UniProt P42574); type: functional;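 note: Dose-response selectivity test against caspase-3 for candidate inhibitors of sentrin-specific proteases (SENPs)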
T3 sequence (P42574 whole entry): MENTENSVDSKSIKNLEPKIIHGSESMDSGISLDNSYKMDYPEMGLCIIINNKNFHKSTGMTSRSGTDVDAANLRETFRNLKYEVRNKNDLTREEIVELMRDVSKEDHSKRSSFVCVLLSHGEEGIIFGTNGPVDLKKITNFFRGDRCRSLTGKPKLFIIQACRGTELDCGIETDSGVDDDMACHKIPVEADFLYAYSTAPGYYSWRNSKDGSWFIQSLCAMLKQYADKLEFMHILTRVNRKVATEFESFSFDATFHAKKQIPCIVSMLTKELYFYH

[8] = biological target: T4, Sentrin-specific protease 6 (Homo sapiens, UniProt Q9GZR1); type: functional;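 note: Luminescence-based dose-response confirmatory assay of SENP6 inhibition, following up an ultra-high-throughput screen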
T4 sequence (Q9GZR1 whole entry): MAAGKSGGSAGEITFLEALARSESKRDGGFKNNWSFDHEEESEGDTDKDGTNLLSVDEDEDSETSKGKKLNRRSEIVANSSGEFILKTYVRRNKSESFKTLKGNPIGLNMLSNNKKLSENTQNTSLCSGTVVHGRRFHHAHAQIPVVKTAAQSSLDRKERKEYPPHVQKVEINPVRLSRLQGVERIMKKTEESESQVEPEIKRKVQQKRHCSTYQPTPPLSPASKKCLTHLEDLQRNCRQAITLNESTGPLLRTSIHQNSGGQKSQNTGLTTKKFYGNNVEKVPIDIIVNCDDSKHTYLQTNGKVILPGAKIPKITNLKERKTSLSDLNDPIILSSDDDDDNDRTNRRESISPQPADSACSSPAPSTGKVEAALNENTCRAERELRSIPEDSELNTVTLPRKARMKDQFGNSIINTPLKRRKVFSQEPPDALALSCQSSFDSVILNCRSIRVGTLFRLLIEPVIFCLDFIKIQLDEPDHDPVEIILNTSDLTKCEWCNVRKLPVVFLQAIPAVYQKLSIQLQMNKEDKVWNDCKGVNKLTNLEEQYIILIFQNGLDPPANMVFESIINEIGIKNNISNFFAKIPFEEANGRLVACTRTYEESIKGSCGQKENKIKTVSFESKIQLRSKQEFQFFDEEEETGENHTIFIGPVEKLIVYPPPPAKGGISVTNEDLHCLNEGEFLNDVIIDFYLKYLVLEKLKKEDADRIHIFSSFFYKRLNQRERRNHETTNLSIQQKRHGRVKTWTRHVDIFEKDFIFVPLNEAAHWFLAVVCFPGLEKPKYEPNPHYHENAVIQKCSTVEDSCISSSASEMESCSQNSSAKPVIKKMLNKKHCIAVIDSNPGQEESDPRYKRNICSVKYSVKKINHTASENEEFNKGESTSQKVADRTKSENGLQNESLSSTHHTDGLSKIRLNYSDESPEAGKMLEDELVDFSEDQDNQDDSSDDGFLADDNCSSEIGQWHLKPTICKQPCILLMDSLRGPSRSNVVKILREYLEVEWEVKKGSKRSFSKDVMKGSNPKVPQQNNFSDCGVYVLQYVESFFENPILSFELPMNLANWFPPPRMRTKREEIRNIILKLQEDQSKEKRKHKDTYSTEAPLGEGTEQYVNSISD

[9] = biological target: T5, Sentrin-specific protease 8 (Homo sapiens, UniProt Q96LD8); type: functional;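 note: luminescence read-out of SENP8 inhibition, dose-response confirmation following an ultra-high-throughput screen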
T5 sequence (Q96LD8 whole entry): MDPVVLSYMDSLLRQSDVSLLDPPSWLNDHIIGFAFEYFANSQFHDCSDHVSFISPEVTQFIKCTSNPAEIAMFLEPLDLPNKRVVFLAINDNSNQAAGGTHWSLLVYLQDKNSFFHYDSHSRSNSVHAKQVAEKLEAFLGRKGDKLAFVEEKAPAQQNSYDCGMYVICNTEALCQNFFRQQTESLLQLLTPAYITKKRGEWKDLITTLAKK

cells [10] = type: functional, cell-based; remark: listed apart in the source
cells [11] = type: functional, cell-based; remark: listed apart in the source
[12] = cytotoxicity toward DRD oncogenic fibroblasts, dose response, cell-based, non-viral oncogenic, luminescence (AID 1934); type: functional; details: Homo sapiens
BJ [13] = assay: cytotoxicity toward BJ-TERT fibroblasts, dose response, cell-based, RAS-independent, luminescence (AID 1933); type: functional; details: Homo sapiens
BJ [14] = assay: cytotoxicity toward BJ-TERT-LT-ST fibroblasts, dose response, cell-based, RAS-independent, luminescence (AID 1935); type: functional; details: Homo sapiens;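 note: BJ fibroblasts immortalized with TERT plus LT and ST oncogenes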
BJ [15] = assay: cells; type: functional, cell-based; details: Homo sapiens
Fatty acid synthase [16] = biological target: T6, Fatty acid synthase (Homo sapiens, UniProt P49327); assay: FAS thioesterase domain inhibitors, dose response, biochemical, endpoint fluorescence intensity, uHTS hits (AID 624327); type: functional;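 note: fluorescence from hydrolysis of an O-methyl fluorescein acyl ester substrate by the enzyme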
T6 sequence (P49327 whole entry, the tested form may be a part): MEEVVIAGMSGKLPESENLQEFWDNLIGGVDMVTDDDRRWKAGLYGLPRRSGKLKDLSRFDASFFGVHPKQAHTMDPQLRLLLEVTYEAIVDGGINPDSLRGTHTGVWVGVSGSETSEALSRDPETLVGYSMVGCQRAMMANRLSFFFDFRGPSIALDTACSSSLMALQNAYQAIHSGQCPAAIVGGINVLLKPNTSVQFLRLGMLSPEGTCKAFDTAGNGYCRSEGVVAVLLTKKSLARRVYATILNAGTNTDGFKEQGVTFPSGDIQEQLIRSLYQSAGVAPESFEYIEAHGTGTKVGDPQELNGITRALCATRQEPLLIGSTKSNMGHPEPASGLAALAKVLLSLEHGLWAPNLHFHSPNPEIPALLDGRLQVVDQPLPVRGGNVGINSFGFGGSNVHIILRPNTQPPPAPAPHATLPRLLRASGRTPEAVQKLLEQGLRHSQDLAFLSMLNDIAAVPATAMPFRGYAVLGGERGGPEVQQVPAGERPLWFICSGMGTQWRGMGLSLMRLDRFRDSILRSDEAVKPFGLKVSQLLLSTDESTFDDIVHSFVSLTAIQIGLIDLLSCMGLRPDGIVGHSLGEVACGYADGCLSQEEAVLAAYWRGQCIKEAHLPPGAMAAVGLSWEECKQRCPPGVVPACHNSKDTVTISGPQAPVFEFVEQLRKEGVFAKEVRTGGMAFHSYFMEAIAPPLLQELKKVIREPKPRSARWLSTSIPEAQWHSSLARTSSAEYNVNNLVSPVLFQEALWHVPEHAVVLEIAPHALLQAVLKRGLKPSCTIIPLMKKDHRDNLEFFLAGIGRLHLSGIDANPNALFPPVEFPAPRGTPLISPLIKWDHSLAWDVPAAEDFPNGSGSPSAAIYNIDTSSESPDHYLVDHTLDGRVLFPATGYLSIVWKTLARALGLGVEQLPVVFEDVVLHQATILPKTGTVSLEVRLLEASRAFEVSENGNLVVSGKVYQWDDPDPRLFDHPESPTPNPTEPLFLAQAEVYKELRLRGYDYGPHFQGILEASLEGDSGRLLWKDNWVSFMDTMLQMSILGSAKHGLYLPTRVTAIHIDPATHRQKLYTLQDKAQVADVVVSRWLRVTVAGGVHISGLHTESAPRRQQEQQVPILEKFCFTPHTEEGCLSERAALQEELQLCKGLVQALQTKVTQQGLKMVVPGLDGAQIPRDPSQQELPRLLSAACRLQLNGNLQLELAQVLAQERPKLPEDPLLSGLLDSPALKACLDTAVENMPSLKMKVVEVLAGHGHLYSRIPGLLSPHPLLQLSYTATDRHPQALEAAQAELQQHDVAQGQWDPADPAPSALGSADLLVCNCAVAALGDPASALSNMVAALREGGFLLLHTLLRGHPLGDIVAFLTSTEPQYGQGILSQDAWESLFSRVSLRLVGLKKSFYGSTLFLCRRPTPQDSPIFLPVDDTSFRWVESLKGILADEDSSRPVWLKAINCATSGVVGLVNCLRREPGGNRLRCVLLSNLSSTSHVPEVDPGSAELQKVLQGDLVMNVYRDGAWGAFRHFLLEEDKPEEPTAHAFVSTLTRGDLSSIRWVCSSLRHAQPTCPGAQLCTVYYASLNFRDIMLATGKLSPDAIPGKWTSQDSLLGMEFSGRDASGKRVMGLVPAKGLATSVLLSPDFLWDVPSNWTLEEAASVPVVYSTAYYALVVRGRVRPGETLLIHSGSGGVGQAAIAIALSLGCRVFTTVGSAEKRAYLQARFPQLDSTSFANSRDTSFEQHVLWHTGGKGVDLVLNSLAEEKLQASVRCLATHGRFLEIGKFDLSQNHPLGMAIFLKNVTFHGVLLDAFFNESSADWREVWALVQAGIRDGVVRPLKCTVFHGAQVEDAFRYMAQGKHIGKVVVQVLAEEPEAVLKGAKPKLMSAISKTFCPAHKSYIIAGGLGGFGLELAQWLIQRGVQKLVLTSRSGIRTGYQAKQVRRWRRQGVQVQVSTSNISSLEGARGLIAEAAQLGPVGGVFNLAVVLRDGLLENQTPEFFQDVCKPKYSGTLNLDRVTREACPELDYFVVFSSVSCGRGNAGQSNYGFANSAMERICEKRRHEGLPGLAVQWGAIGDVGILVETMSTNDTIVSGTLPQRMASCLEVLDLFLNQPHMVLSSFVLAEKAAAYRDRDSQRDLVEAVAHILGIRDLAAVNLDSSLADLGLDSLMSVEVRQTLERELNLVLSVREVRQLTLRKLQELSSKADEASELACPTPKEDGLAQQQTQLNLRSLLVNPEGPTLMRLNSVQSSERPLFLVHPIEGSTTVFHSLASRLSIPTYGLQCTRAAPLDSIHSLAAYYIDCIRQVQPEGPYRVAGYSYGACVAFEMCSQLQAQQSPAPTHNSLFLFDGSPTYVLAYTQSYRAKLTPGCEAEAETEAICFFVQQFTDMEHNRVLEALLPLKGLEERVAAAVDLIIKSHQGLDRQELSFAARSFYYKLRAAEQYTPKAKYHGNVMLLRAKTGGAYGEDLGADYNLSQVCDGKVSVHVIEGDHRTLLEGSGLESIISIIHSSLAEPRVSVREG

Fatty acid synthase [17] = biological target: T6, Fatty acid synthase; assay: FAS thioesterase domain inhibitors, dose response, biochemical, kinetic fluorescence intensity (AID 624326); type: functional;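 note: rate of fluorescence rise from hydrolysis of a fluorogenic O-methyl fluorescein ester substrate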
[18] = biological target: Induced myeloid leukemia cell differentiation protein Mcl-1 (Homo sapiens, UniProt Q07820); type: functional
Induced myeloid leukemia cell differentiation protein Mcl-1, sequence (Q07820 whole entry): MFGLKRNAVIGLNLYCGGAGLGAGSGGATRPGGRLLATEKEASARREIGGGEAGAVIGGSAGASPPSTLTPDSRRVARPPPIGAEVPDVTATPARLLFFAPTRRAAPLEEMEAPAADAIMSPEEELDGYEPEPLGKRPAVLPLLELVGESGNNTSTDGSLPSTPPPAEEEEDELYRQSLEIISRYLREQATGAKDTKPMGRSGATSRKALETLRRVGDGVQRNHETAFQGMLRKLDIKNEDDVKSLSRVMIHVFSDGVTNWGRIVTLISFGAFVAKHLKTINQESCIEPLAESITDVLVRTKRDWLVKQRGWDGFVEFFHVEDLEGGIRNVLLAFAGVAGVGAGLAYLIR

[19] = inhibitors of intracellular T. cruzi replication, confirmation, NIH3T3 host cells, beta-gal luminescence (AID 2044); type: functional, cell-based;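 note: intracellular parasites grown in NIH/3T3 mouse fibroblasts as host cells; luminescent beta-galactosidase reporter signal from transgenic T. cruzi replicating inside host cells; inhibitors lower the luminescence signal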
[20] = cytotoxicity toward NIH3T3 fibroblasts, dose response, counter-screen, cell-based, ATP luminescence, mouse fibroblasts (AID 2010); type: functional;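 note: cells exposed to compound for about 90 hours before reading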

Compound: O=C(NCN1CCc2ccccc2C1)c1cnccn1
IC50 [1]: 8.03 µM (active)
EC50 [2]: 2.14 µM (active)
IC50 (cells [3]): > 29.9 µM (inactive)
EC50 (cells [4]): > 29.9 µM (inactive)

Compound: Cc1nc([N+](=O)[O-])c(Sc2nc3cc([N+](=O)[O-])ccc3[nH]2)n1Cc1ccccc1
CC50 [5]: 12.6 µM (active)
IC50 [6]: > 80 µM (inactive)

Compound: O=C(N[C@H](C(=O)N1CCC[C@H]1C(=O)NCCc1ccccc1Cl)c1ccccc1)c1ccco1
IC50 [1]: > 29.9 µM (inactive)
EC50 [2]: 10.3 µM (inactive)
IC50 (cells [3]): > 29.9 µM (inactive)
EC50 (cells [4]): > 29.9 µM (inactive)

IC50 [7]: 5.29 µM (active)
IC50 (Caspase-3): 19.2 µM (active)
IC50 [8]: 9.02 µM (active)
Compound: O=C(O)c1cccc(NC(=O)c2cccc(S(=O)(=O)Nc3cccc([N+](=O)[O-])c3)c2)c1
IC50 [9]: 11.9 µM (active)

Compound: COC(=O)c1ccc(COc2ccccc2/C=N/NS(=O)(=O)c2ccccc2)cc1
EC50 (cells [10]): > 350 µM (not active)
EC50 (cells [11]): > 350 µM (not active)

Compound: CCOc1ccc(/C=C2\SC(=S)N(CCCC(=O)NCCCN3CCOCC3)C2=O)cc1
EC50 [12]: > 150 µM (not active)
IC50 [6]: > 80 µM (inactive)
EC50 (BJ [13]): 20.1 µM (active)
EC50 (BJ [14]): > 150 µM (not active)
EC50 (BJ [15]): > 150 µM (not active)

Compound: CNC(=O)c1cccn(Cc2ccc(C(F)(F)F)cc2)c1=O
IC50 [6]: > 80 µM (inactive)

Compound: COc1ccccc1N1CN(CCc2ccccc2)CN=C1S
IC50 [1]: 6.11 µM (active)
EC50 [2]: 1.28 µM (active)
IC50 (cells [3]): > 29.9 µM (inactive)
EC50 (cells [4]): > 29.9 µM (inactive)

IC50 [7]: 3.15 µM (active)
IC50 (Caspase-3): 16.9 µM (active)
IC50 [8]: 30.5 µM (active)
Compound: CC(C)c1ccc(/N=C/c2c(O)oc3ccccc3c2=O)cc1
IC50 [9]: 90.6 µM (active)

Compound: CC(C)C(=O)N1CCN(c2nc3ccc(Cl)cc3s2)CC1
EC50 (cells [10]): > 350 µM (not active)
EC50 (cells [11]): > 350 µM (not active)

IC50 (Fatty acid synthase [16]): 3.74 µM (active)
IC50 (Fatty acid synthase [17]): 5.97 µM (active)
Compound: O=C(Cn1cc([N+](=O)[O-])ccc1=O)N1CCc2ccccc2C1

Compound: [O-][Cl+3]([O-])([O-])[O-].c1ccc(-c2ccc(-c3n(-c4ccccn4)c4ccccc4[n+]3-c3ccccn3)cc2)cc1
IC50 [18]: > 54 µM (not active)
EC50 [19]: 0.832 µM (active)
EC50 [20]: > 60 µM (not active)

Compound: O=C(CC1C(=O)NCCN1CCCc1ccccc1)NCCc1ccccc1Cl (stereo unspecified)
IC50 [1]: 5.21 µM (active)
EC50 [2]: 1.51 µM (active)
IC50 (cells [3]): > 29.9 µM (inactive)
EC50 (cells [4]): > 29.9 µM (inactive)
